What all share (assay type): in vivo, C57BL/6 mice
For assay [1], the system named is bleomycin-induced pulmonary fibrosis model. The assay can be described thus: Advanced pulmonary fibrosis: bleomycin-induced model, dosing from three weeks after modelling. The note with it: for Leucocyte / Lymphocyte / Neutrophil / Ashcroft scores: advanced pulmonary fibrosis, 120 mg/kg/d intragastric, 14 days, from three weeks after model; for Leucocyte / Lymphocyte / Neutrophil: blood, Day 15, twice every day; for Ashcroft scores: lung tissue HE staining; for inhibition (anti-inflammatory) effect on leucocytes, neutrophils and lymphocytes in blood: mice with advanced pulmonary fibrosis, result in words.

Assay [2] concerns Streptococcus pneumoniae-induced pulmonary fibrosis model. The assay can be described thus: Streptococcus pneumoniae-induced pulmonary fibrosis model. The following applies: for Leucocyte / Lymphocyte / Neutrophil / Ashcroft scores: Streptococcus pneumoniae + bleomycin, 120 mg/kg/d intragastric, 14 days; for Leucocyte / Lymphocyte / Neutrophil: blood, Day 15, 3 times every day, from one week after model; for Ashcroft scores: lung tissue HE staining; for inhibition (anti-inflammatory) effect on leucocytes, neutrophils and lymphocytes in blood: mice with Streptococcus pneumoniae-induced pulmonary fibrosis, result in words.

Assay [3] relates to influenza A virus-induced pulmonary fibrosis model (FM1 strain of influenza A (H1N1) virus). Put plainly: Influenza A virus-induced pulmonary fibrosis model. The following applies: 120 mg/kg/d intragastric, 14 days; for Ashcroft scores: influenza A virus + bleomycin, lung tissue HE; for IL-1β / IL-6 / NF-κB / TNF-α: serum, influenza A (H1N1) FM1 + bleomycin, from two weeks after model. An excerpt:
Experimental method: an in-vivo influenza A virus-induced pulmonary fibrosis model was established: C57BL/6 mice (with weights being 22-25 g) were randomly and evenly divided into a plurality of groups, including blank control group, model group, Nintedanib positive control group, hypoxanthine analogue A group, hypoxanthine analogue B group, hypoxanthine analogue C group, compound 1 group, compound 2 group . . . compound 12 group, with 9 mice in each group. On Day 1, the mice in blank control group were instilled with normal saline nasally, and the mice in other groups were all infected with a FM1 strain of an influenza A (H1N1) virus 30 (μL) through nasal instillation. On Day 2, the mice received 5 mg/kg bleomycin through tracheas to induce their pulmonary fibrosis. After the model was established for two weeks, the mice in each group were intragastrically administrated for intervention for consecutive 14 days; the mice in blank control group and model group intragastrically received the same dosage of the normal saline as those in drug groups; the mice in Nintedanib positive control group received Nintedanib (120 mg/kg); the mice in hypoxanthine analogue A group, hypoxanthine analogue B group and hypoxanthine analogue C group respectively received hypoxanthine analogue A (120 mg/kg/d), hypoxanthine analogue B (120 mg/kg/d) and hypoxanthine analogue C (120 mg/kg/d); and the mice in compound 1 group, compound 2 group . . . compound 12 group respectively received compound 1 (120 mg/kg/d), compound 2 (120 mg/kg/d) . . . compound 12 (120 mg/kg/d) prepared in example 1. After administration for consecutive 14 days, the mice were observed every day, and their weights and death conditions were recorded. After administration, blood was taken from eyeballs for immediately detecting the expression levels of NF-κB, TNF-α, IL-1 and IL-6 in serum, and lung tissues were taken for HE detection and Ashcroft scoring.

Assay [4] concerns mycoplasma-induced pulmonary fibrosis model (MPFH strain). Put plainly: Mycoplasma-induced pulmonary fibrosis model. The note with it: 120 mg/kg/d intragastric, 14 days; for Leucocyte / Lymphocyte / Neutrophil: MPFH mycoplasma + bleomycin, once a day, from two weeks after model; for Ashcroft scores: mycoplasma + bleomycin, lung tissue HE. From the text:
Experimental method: an in-vivo mycoplasma-induced pulmonary fibrosis model was established: C57BL/6 mice (with weights being 22-25 g) were randomly and evenly divided into a plurality of groups, including blank control group, model group, Nintedanib positive control group, hypoxanthine analogue A group, hypoxanthine analogue B group, hypoxanthine analogue C group, compound 1 group, compound 2 group . . . compound 12 group, with 9 mice in each group. Before a model was established, the mice were anesthetized with diethyl ether. In addition to that the mice in blank control group with instilled with 100 μL of normal saline nasally, the mice in other groups with slowly instilled with an equal volume of a MPFH strain solution (containing 1×10^7 mL^−1 MPFH strain) to the nasal cavity, for consecutive 3 days, and inhaled the MPFH strain solution into bronchi. After instillation with mycoplasmas through tracheas, the mice received 5 mg/kg bleomycin through tracheas to induce their pulmonary fibrosis. After the model was established for two weeks, the mice in each group were intragastrically administrated for intervention for consecutive 14 days; the mice in blank control group and model group intragastrically received an equal dosage of normal saline as those in drug groups; the mice in Nintedanib positive control group received Nintedanib (120 mg/kg); the mice in hypoxanthine analogue A group, hypoxanthine analogue B group and hypoxanthine analogue C group respectively received hypoxanthine analogue A (120 mg/kg/d), hypoxanthine analogue B (120 mg/kg/d) and hypoxanthine analogue C (120 mg/kg/d); and the mice in compound 1 group, compound 2 group . . . compound 12 group respectively received compound 1 (120 mg/kg/d), compound 2 (120 mg/kg/d) . . . compound 12 (120 mg/kg/d) prepared in example 1. The mice were administrated once a day to be treated for consecutive 14 days. The mice were observed every day, and their weights and death conditions were recorded. On the last day of administration, the mice were sacrificed; and blood was taken from eyeballs and kept at −80° C. for detecting blood routine indexes. Meanwhile, lungs were lavaged with normal saline and separated to collect lavage fluids for detecting counts and classes of leucocytes; and lung tissues were taken for HE straining and Ashcroft scoring on the extent of pulmonary fibrosis.

We go through 2 compounds from US20250188082A1, “Use of Hypoxanthine Compound In Preparation of Drug For Treating Pulmonary Fibrosis” (Sichuan Yiasuo Pharmaceutical Technology Co., Ltd., priority 2022, published 2025).

As to `COc1ncnc2c1ncn2C(C)C` [Hypoxanthine analogue C, reference compound], in assay [1] (120 mg/kg/day), the Leucocyte is on record as 72.55 10^9/L, the Lymphocyte is 70.88 10^9/L, the Neutrophil is on record as 59.66 10^9/L and the Ashcroft scores was 6.06. The “inhibition (anti-inflammatory) effect on leucocytes, neutrophils and lymphocytes in blood” value (from here on “inhibition (anti-inflammatory) effect”) in assay [1] was “obviously inferior”. In assay [2] (120 mg/kg/day), the Leucocyte is reported as 149.35 10^9/L, the Lymphocyte was 90.12 10^9/L, the Neutrophil is listed as 82.11 10^9/L and the Ashcroft scores was determined as 6.21. Besides, the “inhibition (anti-inflammatory) effect” value in assay [2] is given as “obviously inferior”. Besides, in assay [3] (120 mg/kg/day), the Ashcroft scores was 6.09, the IL-1β came to 338.1 pg/mL, the IL-6 turned out to be 450.0 pg/mL and the NF-κB is 782.1 pg/mL. In addition, in assay [3] (120 mg/kg/day), the TNF-α worked out at 333.1 pg/mL. In assay [4] (120 mg/kg/day), the Leucocyte is on record as 120.98 10^9/L, the Lymphocyte is listed as 571.34 10^9/L, the Neutrophil was 238.07 10^9/L and the Ashcroft scores is given as 6.41.
As to `COC(=O)c1ccc2c(c1)NC(=O)/C2=C(\Nc1ccc(N(C)C(=O)CN2CCN(C)CC2)cc1)c1ccccc1` [Nintedanib, reference compound], in assay [1], the Leucocyte is recorded as 46.09 10^9/L, the Lymphocyte is on record as 50.03 10^9/L, the Neutrophil was 40.99 10^9/L and the Ashcroft scores is given as 4.13. Also, the “inhibition (anti-inflammatory) effect” value in assay [1] is “obviously inferior”. Moreover, in assay [2], the Leucocyte is recorded as 98.31 10^9/L, the Lymphocyte is listed as 87.43 10^9/L, the Neutrophil was 78.94 10^9/L and the Ashcroft scores was determined as 4.55. Further, in assay [2], the “inhibition (anti-inflammatory) effect” value is “obviously inferior”. For the same compound, in assay [3], the Ashcroft scores was 4.27, the IL-1β was 220.7 pg/mL, the IL-6 was found to be 349.1 pg/mL and the NF-κB was 625.2 pg/mL. For the same compound, in assay [3], the TNF-α was 243.6 pg/mL. In addition, in assay [4], the Leucocyte is 122.15 10^9/L, the Lymphocyte is recorded as 565.69 10^9/L, the Neutrophil is on record as 232.24 10^9/L and the Ashcroft scores was determined as 5.45.
